Assay results from ChEMBL document CHEMBL2331127, “3D-QSAR and docking studies of pentacycloundecylamines at the sigma-1 (σ1) receptor” (Bioorg Med Chem Lett, 2013).

What was measured:
[1] = target: Sigma non-opioid intracellular receptor 1 (Rattus norvegicus, UniProt Q9R0C9); experiment: Displacement of [3H](+)-pentazocine from sigma-1 receptor in rat liver homogenate; type: tissue-based
[2] = target: Sigma non-opioid intracellular receptor 1 (Cavia porcellus, UniProt Q60492); experiment: Displacement of [3H](+)-pentazocine from sigma-1 receptor in guinea pig brain
Chain of Sigma non-opioid intracellular receptor 1 (Cavia porcellus, UniProt Q60492) (Q60492 whole entry): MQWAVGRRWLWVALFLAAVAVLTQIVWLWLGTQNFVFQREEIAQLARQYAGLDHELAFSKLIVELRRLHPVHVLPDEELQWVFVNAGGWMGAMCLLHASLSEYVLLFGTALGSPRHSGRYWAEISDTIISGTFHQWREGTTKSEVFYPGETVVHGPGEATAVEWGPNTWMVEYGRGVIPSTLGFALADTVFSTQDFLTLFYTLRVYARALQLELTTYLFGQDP

Chain of Sigma non-opioid intracellular receptor 1 (Rattus norvegicus, UniProt Q9R0C9) (Q9R0C9 whole entry): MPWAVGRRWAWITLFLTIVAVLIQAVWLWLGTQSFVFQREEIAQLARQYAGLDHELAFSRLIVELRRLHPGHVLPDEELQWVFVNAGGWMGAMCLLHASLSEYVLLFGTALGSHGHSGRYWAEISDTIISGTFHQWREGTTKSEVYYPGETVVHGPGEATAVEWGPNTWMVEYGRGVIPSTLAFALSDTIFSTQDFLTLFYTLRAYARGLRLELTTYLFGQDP

Question: How did the IC50 [1] turn out when `c1ccc(CCNC23OC4C5C6CC(C7C6C4C72)C53)cc1` (stereo not drawn) was run?
Answer: The IC50 was 1540 nM.

Question: With `OC12C3C4CC5C6C4C1C6C(C53)N2Cc1ccccc1F` (stereo not drawn) as the compound, how does the Ki [2] read?
Answer: Its Ki is 182 nM.

Question: With `OC12C3C4CC5C6C4C1C6C(C53)N2Cc1ccc(Br)cc1` (stereo not drawn) as the compound, how does the Ki [2] read?
Answer: Its Ki is 85.1 nM.

Question: How did the Ki [2] turn out when `OC12C3C4CC5C6C4C1C6C(C53)N2CCCCc1ccccc1` (stereo not drawn) was run?
Answer: Its Ki is 8.91 nM.

Question: For `OC12C3C4CC5C6C4C1C6C(C53)N2Cc1ccc(F)cc1` (stereo not drawn), which Ki [2] is on record?
Answer: Its Ki is 107 nM.

Question: With `COc1ccc(CN2C3C4C5CC6C7C5C3C7C2(O)C64)cc1` (stereo not drawn) as the compound, how does the Ki [2] read?
Answer: The Ki was 102 nM.

Question: With `OC12C3C4CC5C6C4C1C6C(C53)N2CCc1ccc(Cl)c(Cl)c1` (stereo not drawn) as the compound, how does the Ki [2] read?
Answer: The Ki was 10 nM.

Question: With `OC12C3C4CC5C6C4C1C6C(C53)N2CCc1ccc(Br)cc1` (stereo not drawn) as the compound, how does the Ki [2] read?
Answer: The Ki was 10 nM.

Question: With `OC12C3C4CC5C6C4C1C6C(C53)N2Cc1ccc(F)c(F)c1` (stereo not drawn) as the compound, how does the Ki [2] read?
Answer: Its Ki is 200 nM.

Question: For `OC12C3C4CC5C6C4C1C6C(C53)N2CCc1cccc(F)c1` (stereo not drawn), which Ki [2] is on record?
Answer: The Ki was 10 nM.

Question: With `OC12C3C4CC5C6C4C1C6C(C53)N2Cc1ccccc1` (stereo not drawn) as the compound, how does the Ki [2] read?
Answer: The Ki was 102 nM.

Question: How did the IC50 [1] turn out when `c1ccc(CNC23OC4C5C6CC(C7C6C4C72)C53)cc1` (stereo not drawn) was run?
Answer: The IC50 was 1780 nM.

Question: `O=[N+]([O-])c1cccc(CN2C3C4C5CC6C7C5C3C7C2(O)C64)c1` (stereo not drawn) was tested. Which Ki [2] did it give?
Answer: The Ki was 1100 nM.

Question: With `Cc1cccc(CN2C3C4C5CC6C7C5C3C7C2(O)C64)c1` (stereo not drawn) as the compound, how does the Ki [2] read?
Answer: The Ki was 97.7 nM.

Question: With `OC12C3C4CC5C6C4C1C6C(C53)N2Cc1cccc(F)c1` (stereo not drawn) as the compound, how does the Ki [2] read?
Answer: The Ki was 151 nM.

Question: For `OC12C3C4CC5C6C4C1C6C(C53)N2CCc1cccc(Cl)c1` (stereo not drawn), which Ki [2] is on record?
Answer: The Ki was 20.9 nM.

Question: How did the Ki [2] turn out when `OC12C3C4CC5C6C4C1C6C(C53)N2CCCc1ccccc1` (stereo not drawn) was run?
Answer: The Ki was 20.9 nM.

Question: For `OC12C3C4CC5C6C4C1C6C(C53)N2Cc1cccc(C(F)(F)F)c1` (stereo not drawn), which Ki [2] is on record?
Answer: The Ki was 269 nM.

Question: Which Ki [2] does the source give for `OC12C3C4CC5C6C4C1C6C(C53)N2Cc1cccc(Cl)c1` (stereo not drawn) here?
Answer: Its Ki is 186 nM.

Question: Which Ki [2] does the source give for `OC12C3C4CC5C6C4C1C6C(C53)N2CCc1ccccc1` (stereo not drawn) here?
Answer: The Ki was 20 nM.

Question: How did the Ki [2] turn out when `OC12C3C4CC5C6C4C1C6C(C53)N2Cc1cccc(Br)c1` (stereo not drawn) was run?
Answer: Its Ki is 209 nM.

Question: How did the Ki [2] turn out when `OC12C3C4CC5C6C4C1C6C(C53)N2Cc1ccc(I)cc1` (stereo not drawn) was run?
Answer: Its Ki is 81.3 nM.

Question: `OC12C3C4CC5C6C4C1C6C(C53)N2Cc1cccc(I)c1` (stereo not drawn) was tested. Which Ki [2] did it give?
Answer: Its Ki is 170 nM.
